# Laboratory results: US20070149485A1, “SELECTED DOSAGE FOR THE TREATMENT OF CARDIOVASCULAR AND RELATED PATHOLOGIES” (Medicure International, Inc., priority 2005, published 2007)
# System: high-risk patients undergoing CABG surgery with cardiopulmonary bypass
# Assay: Cognitive function after CABG surgery, Mini Mental State Exam (MMSE), MEND-CABG trial
# Assay type: in vivo, human
# Conditions: for MMSE at POD 30, Mean / MMSE at POD 90, Mean: score 0-30
# Description: The ability of P5P to protect against cognitive decline following CABG surgery was evaluated through the administration of a battery of validated psychometric tests pre-operatively, 4 days after surgery, 30 days after surgery, and 90 days after surgery.
# A randomized, double-blind placebo-controlled, dose-ranging, parallel-arm multi-center study was undertaken, on high-risk patients undergoing CABG surgery with cardiopulmonary bypass.
# Patients were identified as “high risk” if they had two or more of the following risk factors: • Age greater than 65 years; • Diabetes mellitus; • History of congestive heart failure; • History of a previous non-disabling stroke, transient ischemic attack, or carotid endarterectomy; • Prior CABG surgery; • Urgent CABG intervention defined as the need to stay in the hospital (although the patient may be operated on within a normal scheduling routine); • History of myocardial infarction that occurred more than 48 hours but less than 6 weeks prior to CABG surgery; and • Presence of at least one asymptomatic carotid artery stenosis (>50%) either in one or two carotid arteries.
# Approximately 900 high risk pre-CABG patients in 42 different treatment centers in North America were screened and randomized to three groups of approximately 300 patients each, prior to their bypass surgery, as follows. Patients were either placed in a control group (placebo), treated with 250 mg/day of P5P, (250 mg/day), or treated with 750 mg/day of P5P (750 mg/day). The first dose of study medication was administered at 3-10 hours prior to CABG surgery. In the event of surgery delay or rescheduling, a second pre-operative dose of P5P was administered so that all patients received study medication 3-10 hours before surgery. Treatment continued for 30 days after surgery (post operative day (POD) 30). Patients received follow-up evaluations up to and including postoperative day (POD) 4, on POD 30 and on POD 90.
# Patients were measured to assess change in cognitive function by the effects of P5P on neurological events following CABG surgery by methods of Mini Mental State Exam and psychometric testing (grooved pegboard).
# MMSE is a well validated test to screen cognitive function (Folstein, J Psychiatr Res. 1975 Nov.;12(3):189-98). It measures orientation, registration (immediate memory), short-term (but not long-term) memory, and language functioning. The test is scored from 0-30, with scores of 25-30 considered normal, scores of 18-24 indicative of mild cognitive impairment, and scores under 17 indicative of severe impairment (Crum, JAMA. 1993 May 12;269(18):2386-91). This test is appropriate to indicate the presence of cognitive impairment.
# The MMSE was administered to all 900 patients at screening, post-operative day (POD) 30, and POD 90. The MMSE score at POD 90 was analyzed using an analysis of covariance (ANOCO) model, adjusting for the MMSE score at screening. […] The results with P5P treatment (either 250 or 750 mg/day) were tabulated in Table 7, according to screening MMSE score.
compound,measurement,setting,value
"Cc1ncc(COP(=O)(O)O)c(C=O)c1O [P5P, 3-hydroxy-2-methyl-5-[(phosphonooxy)methyl]-4-pyridine-carboxaldehyde]","MMSE at POD 90, Adjusted Mean","250 mg/day, MMSE screening = 25, ANOCO p 0.0067 vs placebo",27.74
same,"MMSE at POD 90, Adjusted Mean","250 mg/day, MMSE screening = 26, ANOCO p 0.0074 vs placebo",28.08
same,"MMSE at POD 90, Adjusted Mean","250 mg/day, MMSE screening = 27, ANOCO p 0.0116 vs placebo",28.42
same,"MMSE at POD 90, Adjusted Mean","250 mg/day, MMSE screening = 28, ANOCO p 0.0579 vs placebo",28.76
same,"MMSE at POD 90, Adjusted Mean","250 mg/day, MMSE screening = 29, ANOCO p 0.7654 vs placebo",29.10
same,"MMSE at POD 90, Adjusted Mean","250 mg/day, MMSE screening = 30, ANOCO p 0.2726 vs placebo",29.44
same,"MMSE at POD 30, Mean",250 mg/day,28.57
same,"MMSE at POD 90, Mean",250 mg/day,28.97
same,"MMSE at POD 90, Adjusted Mean","750 mg/day, MMSE screening = 25, ANOCO p 0.0664 vs placebo",27.41
same,"MMSE at POD 90, Adjusted Mean","750 mg/day, MMSE screening = 26, ANOCO p 0.0701 vs placebo",27.83
same,"MMSE at POD 90, Adjusted Mean","750 mg/day, MMSE screening = 27, ANOCO p 0.0875 vs placebo",28.25
same,"MMSE at POD 90, Adjusted Mean","750 mg/day, MMSE screening = 28, ANOCO p 0.1926 vs placebo",28.67
same,"MMSE at POD 90, Adjusted Mean","750 mg/day, MMSE screening = 29, ANOCO p 0.8350 vs placebo",29.08
same,"MMSE at POD 90, Adjusted Mean","750 mg/day, MMSE screening = 30, ANOCO p 0.4317 vs placebo",29.50
same,"MMSE at POD 30, Mean",750 mg/day,28.79
same,"MMSE at POD 90, Mean",750 mg/day,28.99
same,protection against the decline in overall neurocognitive function associated with CABG surgery,"MEND-CABG trial, 250 or 750 mg/day",provided protection
same,"Improvements in MMSE score, 250 mg/day dose group compared with 750 mg/day dose group",in particular in patients with lower MMSE scores at screening,more significant
